From patent EP4417607A1, “HETEROCYCLIC COMPOUND AS SOS1 INHIBITOR AND USES THEREOF” (Nanjing Zaiming Pharmaceutical Co., Ltd., priority 2021, dated 2023)

Key:
H358 cells = assay: H358 cell proliferation inhibition (CellTiter-Glo luminescent cell viability assay); format: cell-based; details: Homo sapiens, NCI-H358, 168 h, 7 days
Method in brief: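 H358 cells seeded at 3000 cells/well in RPMI1640/10% FBS, treated with compound for 7 days at 37 °C/5% CO2. Viability read by CellTiter-Glo 3D luminescence, normalised to cell-free (100%) and compound-free (0%) controls; IC50 fitted from 8 concentrations by four-parameter curve.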

[1] = tested on: p-ERK pathway in H358 cells; assay: p-ERK pathway inhibition in H358 cells (Advanced phospho-ERK (Thr202/Tyr204) cellular kit, HTRF); format: cell-based; details: Homo sapiens, NCI-H358, 1 h compound incubation
Method in brief: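 Serum-starved H358 cells (50000/well, overnight) treated with compound for 1 h at 37 °C, then lysed; phospho-ERK (Thr202/Tyr204) read by HTRF (665/620 nm ratio). Cell-free wells set 100% inhibition, untreated cells 0%; IC50 fitted from 8 concentrations by four-parameter curve.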

Row | Compound | IC50 (H358 cells) | IC50 [1]
1 | [2H]C([2H])([2H])Oc1c(=O)n(N2CCOCC2)cc2c(N[C@H](C)c3cccc(C(F)F)c3F)nc(C)nc12 [Example 48, (R)-4-((1-(3-(difluoromethyl)-2-fluorophenyl)ethyl)amino)-8-(methoxy-d3)-2-methyl-6-morpholinepyrido[4,3-d]pyrimidine-7(6H)-one] | 47.2 nM | 114 nM
2 | COc1c(=O)n(C2(CF)CC2)cc2c(N[C@H](C)c3cccc([N+](=O)[O-])c3C)nc(C)nc12 [Example 29, (R)-6-(1-(fluoromethyl)cyclopropyl)-8-methoxy-2-methyl-4-((1-(2-methyl-3-nitrophenyl)ethyl)amino)pyrido[4,3-d]pyrimidine-7(6H)-one] | 78.7 nM | 71 nM
3 | Cc1nc(N[C@H](C)c2cccc(C(F)F)c2F)c2cn(C3(CF)CC3)c(=O)c(C3(O)CCOC3)c2n1 (stereo partly drawn) [Example 139, 4-(((R)-1-(3-(difluoromethyl)-2-fluorophenyl)ethyl)amino)-6-(1-(fluoromethyl)cyclopropyl)-8-(3-hydroxytetrahydrofuran-3-yl)-2-methylpyrido[4,3-d]pyrimidine-7(6H)-one] | 86.6 nM | 81.2 nM
4 | CC[C@H]1COCCN1c1c(=O)n(C2(CF)CC2)cc2c(N[C@H](C)c3cccc(C(F)F)c3F)nc(C)nc12 [Example 58, 4-(((R)-1-(3-(difluoromethyl)-2-fluorophenyl)ethyl)amino)-8-((S)-3-ethylmorpholino)-6-(1-(fluoromethyl)cyclopropyl)-2-methylpyrido[4,3-d]pyrimidine-7(6H)-one] | 57.9 nM | 112 nM
5 | Cc1nc(N[C@H](C)c2cccc(C(F)F)c2F)c2cn(N3CCOCC3)c(=O)c(N3CCN(C)CC3)c2n1 [Example 69, (R)-4-((1-(3-(difluoromethyl)-2-fluorophenyl)ethyl)amino)-2-methyl-8-(4-methylpiperazin-1-yl)-6-morpholinepyrido[4,3-d]pyrimidine-7(6H)-one] | 22.9 nM | 38.7 nM
6 | Cc1nc(N[C@H](C)c2cccc([N+](=O)[O-])c2C)c2cn(C3(CF)CC3)c(=O)cc2n1 [Example 13] | 54.1 nM | 131 nM
7 | Cc1nc(N[C@H](C)c2cccc(C(F)(F)F)c2C)c2cn(N3CCOCC3)c(=O)c(N3CCN(C)CC3)c2n1 [Example 70, (R)-2-methyl-4-((1-(2-methyl-3-(trifluoromethyl)phenyl)ethyl)amino)-8-(4-methylpiperazin-1-yl)-6-morpholinepyrido[4,3-d]pyrimidine-7(6H)-one] | 45.2 nM | 34.5 nM
8 | Cc1nc(N[C@H](C)c2cccc(C(F)F)c2F)c2cn(C3(CF)CC3)c(=O)c(S(C)(=O)=O)c2n1 [Example 66, (R)-4-((1-(3-(difluoromethyl)-2-fluorophenyl)ethyl)amino)-6-(1-(fluoromethyl)cyclopropyl)-2-methyl-8-(methylsulfonyl)pyrido[4,3-d]pyrimidine-7(6H)-one] | 79 nM | 76.8 nM
9 | COc1c(=O)n(C2(C)CCN(C(C)=S)C2)cc2c(N[C@H](C)c3cccc(C(F)F)c3F)nc(C)nc12 (some centres unmarked) [Example 19] | 69.6 nM | 52.5 nM
10 | Cc1nc(N[C@H](C)c2cccc(C(F)F)c2F)c2cn(C3(CF)CC3)c(=O)c(N3CCC4(CC3)COC4)c2n1 [Example 151, (R)-4-((1-(3-(difluoromethyl)-2-fluorophenyl)ethyl)amino)-6-(1-(fluoromethyl)cyclopropyl)-2-methyl-8-(2-oxa-7-azaspiro[3.5]nonan-7-yl)pyrido[4,3-d]pyrimidine-7(6H)-one] | 73.1 nM | 41.7 nM
11 | Cc1nc(N[C@H](C)c2cccc(C(F)(F)F)c2C)c2cn(C3(CF)CC3)c(=O)c(N3CCO[C@H](C)C3)c2n1 [Example 85, 6-(1-(fluoromethyl)cyclopropyl)-2-methyl-4-(((R)-1-(2-methyl-3-(trifluoromethyl)phenyl)ethyl)amino)-8-((R)-2-methylmorpholine)pyrido[4,3-d]pyrimidine-7(6H)-one] | 97.2 nM | 41 nM
12 | [2H]C([2H])([2H])[C@@H](Nc1nc(C)nc2c(N3CCOCC3)c(=O)n(C3(CF)CC3)cc12)c1cccc(C(F)F)c1F [Example 90] | 35.4 nM | 16.7 nM
13 | [2H]C([2H])([2H])Oc1c(=O)n(C2(CF)CC2)cc2c(N[C@H](C)c3cccc(S(F)(F)(F)(F)F)c3)nc(C)nc12 [Example 31, (R)-6-(1-(fluoromethyl)cyclopropyl)-8-(methoxy-d3)-2-methyl-4-((1-(3-(pentafluoro-λ^6-sulfanyl)phenyl)ethyl)amino)pyrido[4,3-d]pyrimidine-7(6H)-one] | 133 nM | 73 nM
14 | Cc1nc(N[C@H](C)c2cccc(C(F)F)c2F)c2cn(C3(CF)CC3)c(=O)c(N3CCO[C@H](C)C3)c2n1 [Example 42, 4-(((R)-1-(3-(difluoromethyl)-2-fluorophenyl)ethyl)amino)-6-(1-(fluoromethyl)cyclopropyl)-2-methyl-8-((R)-2-methylmorpholine)pyrido[4,3-d]pyrimidine-7(6H)-one] | 50.5 nM | 41.8 nM
15 | COc1ccc(-c2c(=O)n(N3CCOCC3)cc3c(N[C@H](C)c4cccc(C#N)c4C)nc(C)nc23)cn1 [Example 162] | 96.5 nM | 77.5 nM

The remaining lines, values ahead:

Row | IC50 (H358 cells) | IC50 [1] | Compound
16 | 11.8 nM | 66.3 nM | Cc1nc(N[C@H](C)c2cccc(C(F)F)c2F)c2cn(C3(CF)CC3)c(=O)c(N3CCN4CCC[C@@H]4C3)c2n1 (stereo in doubt) [Example 97, 4-(((R)-1-(3-(difluoromethyl)-2-fluorophenyl)ethyl)amino)-6-(1-(fluoromethyl)cyclopropyl)-8-((R)-hexahydropyrrolo[1,2-a]pyrazin-2(1H)-yl)-2-methylpyrido[4,3-d]pyrimidine-7(6H)-one]
17 | 22.8 nM | 16.4 nM | Cc1nc(N[C@H](C)c2cccc(C(F)F)c2F)c2cn(C3(CF)CC3)c(=O)c(NC3COC3)c2n1 [Example 61, (R)-4-((1-(3-(difluoromethyl)-2-fluorophenyl)ethyl)amino)-6-(1-(fluoromethyl)cyclopropyl)-2-methyl-8-(oxetan-3-ylamino)pyrido[4,3-d]pyrimidine-7(6H)-one]
18 | 41.9 nM | 62.3 nM | [2H][C@](C)(Nc1nc(C)nc2c(N3CCS(=O)(=O)CC3)c(=O)n(C3(CF)CC3)cc12)c1cccc(C(F)F)c1F [Example 124, (R)-4-((1-(3-(difluoromethyl)-2-fluorophenyl)ethyl-1-d)amino)-8-(1,1-dioxidothiomorpholinyl)-6-(1-(fluoromethyl)cyclopropyl)-2-methylpyrido[4,3-d]pyrimidine-7(6H)-one]
19 | 11.7 nM | 100 nM | Cc1nc(N[C@H](C)c2cccc(C(F)F)c2F)c2cn(C3(CF)CC3)c(=O)c(N3CCN(C)CC3)c2n1 [Example 38, (R)-4-((1-(3-(difluoromethyl)-2-fluorophenyl)ethyl)amino)-6-(1-(fluoromethyl)cyclopropyl)-2-methyl-8-(4-methylpiperazin-1-yl)pyrido[4,3-d]pyrimidine-7(6H)-one]
20 | 114 nM | 156 nM | Cc1nc(N[C@H](C)c2cccc(C#N)c2C)c2cn(C3(CF)CC3)c(=O)c(-c3ccc(C#N)cc3)c2n1 [Example 71, (R)-3-(1-((8-(4-cyanophenyl)-6-(1-(fluoromethyl)cyclopropyl)-2-methyl-7-oxo-6,7-dihydropyrido[4,3-d]pyrimidin-4-yl)amino)ethyl)-2-methylbenzonitrile]
21 | 130 nM | 82.4 nM | Cc1nc(N[C@H](C)c2cccc(C(F)F)c2F)c2cn(C3(CF)CC3)c(=O)c(N=S(C)(C)=O)c2n1 [Example 103, (R)-4-((1-(3-(difluoromethyl)-2-fluorophenyl)ethyl)amino)-8-((dimethyl(oxo)-λ^6-sulfanylidene)amino)-6-(1-(fluoromethyl)cyclopropyl)-2-methylpyrido[4,3-d]pyrimidine-7(6H)-one]
22 | 50.4 nM | 73.6 nM | Cc1nc(N[C@H](C)c2cccc(C#N)c2C)c2cn(N3CCOCC3)c(=O)c(N3CCOC[C@@H]3C)c2n1 [Example 110, 2-methyl-3-((R)-1-((2-methyl-8-((S)-3-methylmorpholine)-6-morpholine-7-oxo-6,7-dihydropyrido[4,3-d]pyrimidin-4-yl)amino)ethyl)benzonitrile]
23 | 50.5 nM | 95.5 nM | CCN(CC)c1c(=O)n(C2(CF)CC2)cc2c(N[C@H](C)c3cccc(C(F)F)c3F)nc(C)nc12 [Example 96, (R)-8-(diethylamino)-4-((1-(3-(difluoromethyl)-2-fluorophenyl)ethyl)amino)-6-(1-(fluoromethyl)cyclopropyl)-2-methylpyrido[4,3-d]pyrimidine-7(6H)-one]
24 | 88.4 nM | 56.5 nM | Cc1nc(N[C@H](C)c2cccc(C(F)F)c2F)c2cn(C3(CF)CC3)c(=O)c(N3CCN(CC(F)(F)F)CC3)c2n1 [Example 131, (R)-4-((1-(3-(difluoromethyl)-2-fluorophenyl)ethyl)amino)-6-(1-(fluoromethyl)cyclopropyl)-2-methyl-8-(4-(2,2,2-trifluoroethyl)piperazin-1-yl)pyrido[4,3-d]pyrimidine-7(6H)-one]
25 | 37.3 nM | 84.3 nM | Cc1nc(N[C@H](C)c2cccc(C(F)F)c2F)c2cn(C3(CF)CC3)c(=O)c(N3CCN(CC4CC4)CC3)c2n1 [Example 132, (R)-8-(4-(cyclopropylmethyl)piperazin-1-yl)-4-((1-(3-(difluoromethyl)-2-fluorophenyl)ethyl)amino)-6-(1-(fluoromethyl)cyclopropyl)-2-methylpyrido[4,3-d]pyrimidine-7(6H)-one]
